The values below come from patent US20250034136A1 (Nimbus Wadjet, Inc., priority 2023, published 2025).

In experiment [1] the test system is p21 induction in HCT116 cells. In words: p21 induction in HCT116 cells. Format: cell-based. Particulars: Homo sapiens, HCT-116, 24 h, HCT116 cells, 24 h compound incubation; read-out: P21_EC50. The method in brief: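 HCT116 cells, 2,000/well, treated 24 h at 37 °C with 11-point compound dilutions in duplicate. Fixed, then immunostained for p21 and GAPDH and read by near-IR imaging at 800/700 nm. Normalized to DMSO (low) and reference WRN inhibitor (high) controls; EC50 from non-linear regression.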

The target of experiment [2] is WRN (BV08), human Werner helicase (Uniprot Q14191, amino acids 517-1235 with L1074F point mutation) (Homo sapiens (Human), UniProt Q14191, L1074F). In words: WRN (BV08) ADP-Glo assay. The class given is biochemical. As to conditions: class symbols A-E, read-out: ADP-Glo_hWRN_IC50. A general note: In ADP-Glo the light output rises with the ADP produced.
WRN (BV08), human Werner helicase (Uniprot Q14191, amino acids 517-1235 with L1074F point mutation), sequence (Q14191 other isoform, or with tags, fused parts or gaps L1074F (already in the parent)): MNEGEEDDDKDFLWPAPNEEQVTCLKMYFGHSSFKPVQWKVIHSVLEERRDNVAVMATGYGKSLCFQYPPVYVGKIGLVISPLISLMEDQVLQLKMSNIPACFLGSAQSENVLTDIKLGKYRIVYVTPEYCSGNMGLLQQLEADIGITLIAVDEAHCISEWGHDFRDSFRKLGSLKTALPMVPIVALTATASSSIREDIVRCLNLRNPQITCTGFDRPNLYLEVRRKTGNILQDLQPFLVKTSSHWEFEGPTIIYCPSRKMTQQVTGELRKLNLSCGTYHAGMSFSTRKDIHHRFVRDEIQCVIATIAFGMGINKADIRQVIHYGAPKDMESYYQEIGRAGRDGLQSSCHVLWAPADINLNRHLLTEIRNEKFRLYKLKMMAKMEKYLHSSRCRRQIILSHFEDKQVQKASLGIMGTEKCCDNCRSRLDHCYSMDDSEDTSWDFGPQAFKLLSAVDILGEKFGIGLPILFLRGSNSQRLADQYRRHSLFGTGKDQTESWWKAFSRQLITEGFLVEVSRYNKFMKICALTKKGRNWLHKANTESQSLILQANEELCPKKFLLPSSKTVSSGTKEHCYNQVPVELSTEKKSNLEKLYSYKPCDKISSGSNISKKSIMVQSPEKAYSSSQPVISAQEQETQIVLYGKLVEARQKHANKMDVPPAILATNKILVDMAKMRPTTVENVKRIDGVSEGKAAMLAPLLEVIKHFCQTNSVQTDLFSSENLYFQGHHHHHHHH

Take `CCc1c(N2CCN(C(=O)c3ncnc(C)c3O)C3(CC3)C2)c(=O)c2nc(N(C)C)cnc2n1CC(=O)Nc1ccc(C(F)(F)F)cc1Cl` [I-176, N-[2-chloro-4-(trifluoromethyl)phenyl]-2-[2-(dimethylamino)-6-ethyl-7-[4-(5-hydroxy-6-methylpyrimidine-4-carbonyl)-4,7-diazaspiro[2.5]octan-7-yl]-8-oxo-5H,8H-pyrido[2,3-b]pyrazin-5-yl]acetamide]: the EC50 in experiment [1] was more than 5000 nM. The IC50 in experiment [2] lay in the range of 50 to 100 nM.

Regarding `CCc1c(N2CCN(C(=O)c3ncnc(C)c3O)CC2)c(=O)c2nc(N3CCC(F)(F)C3)cnc2n1CC(=O)Nc1ccc(C(F)(F)F)cc1Cl` [I-177, N-[2-chloro-4-(trifluoromethyl)phenyl]-2-[2-(3,3-difluoropyrrolidin-1-yl)-6-ethyl-7-[4-(5-hydroxy-6-methylpyrimidine-4-carbonyl)piperazin-1-yl]-8-oxo-5H,8H-pyrido[2,3-b]pyrazin-5-yl]acetamide], the EC50 in experiment [1] is more than 5000 nM. In addition, the IC50 in experiment [2] is 5 to 50 nM.

Consider `CCc1c(N2CCN(C(=O)c3ncnc(C)c3O)C(CO)C2)c(=O)c2nc(N(C)C)cnc2n1CC(=O)Nc1ccc(C(F)(F)F)cc1Cl` (centres unmarked) [I-178, N-[2-chloro-4-(trifluoromethyl)phenyl]-2-[2-(dimethylamino)-6-ethyl-7-[4-(5-hydroxy-6-methylpyrimidine-4-carbonyl)-3-(hydroxymethyl)piperazin-1-yl]-8-oxo-5H,8H-pyrido[2,3-b]pyrazin-5-yl]acetamide], for which, in experiment [1], the EC50 is more than 5000 nM. For the same molecule, in experiment [2], the IC50 lay in the range of 5 to 50 nM.

As for `CCc1c(N2CCN(C(=O)c3ncnc(C)c3O)CC2)c(=O)c2nc(N(C3CC3)C3CC3)cnc2n1CC(=O)Nc1ccc(C(F)(F)F)cc1Cl` [I-179, N-[2-chloro-4-(trifluoromethyl)phenyl]-2-[2-(dicyclopropylamino)-6-ethyl-7-[4-(5-hydroxy-6-methylpyrimidine-4-carbonyl)piperazin-1-yl]-8-oxo-5H,8H-pyrido[2,3-b]pyrazin-5-yl]acetamide], in experiment [1], the EC50 was in the range of 2000 to 5000 nM. Further, the IC50 in experiment [2] lay within 5 to 50 nM.

For the molecule `CCc1c(N2CCN(C(=O)c3ncnc(C)c3O)CC2)c(=O)c2nc(C=C3CC(C)(O)C3)cnc2n1CC(=O)Nc1ccc(C(F)(F)F)cc1Cl` (centres unmarked) [I-180, N-[2-chloro-4-(trifluoromethyl)phenyl]-2-{6-ethyl-2-[(3-hydroxy-3-methylcyclobutylidene)methyl]-7-[4-(5-hydroxy-6-methylpyrimidine-4-carbonyl)piperazin-1-yl]-8-oxo-5H,8H-pyrido[2,3-b]pyrazin-5-yl}acetamide], the EC50 in experiment [1] lay within 500 to 2000 nM. Further, the IC50 in experiment [2] is 5 to 50 nM.

Take `CCc1c(N2CCN(C(=O)c3ncnc(C)c3O)[C@H]3CC[C@@H]32)c(=O)c2nc(OC3CCC3)cnc2n1CC(=O)Nc1ccc(C(F)(F)F)cc1Cl` [I-181, N-[2-chloro-4-(trifluoromethyl)phenyl]-2-{2-cyclobutoxy-6-ethyl-7-[(1S,6S)-5-(5-hydroxy-6-methylpyrimidine-4-carbonyl)-2,5-diazabicyclo[4.2.0]octan-2-yl]-8-oxo-5H,8H-pyrido[2,3-b]pyrazin-5-yl}acetamide]: the EC50 in experiment [1] is less than 500 nM. The IC50 in experiment [2] was 5 to 50 nM.

In the case of `CCc1c(N2CCN(C(=O)c3ncnc(C)c3O)[C@H]3CC[C@@H]32)c(=O)c2nc(OC)cnc2n1CC(=O)Nc1ccc(C(F)(F)F)cc1Cl` [I-182, N-[2-chloro-4-(trifluoromethyl)phenyl]-2-{6-ethyl-7-[(1S,6S)-5-(5-hydroxy-6-methylpyrimidine-4-carbonyl)-2,5-diazabicyclo[4.2.0]octan-2-yl]-2-methoxy-8-oxo-5H,8H-pyrido[2,3-b]pyrazin-5-yl} acetamide], in experiment [1], the EC50 was less than 500 nM. Besides, the IC50 in experiment [2] is not above 5 nM.
